# Source: ChEMBL document CHEMBL1148617, “Design, synthesis, and structure-activity relationships of 1-,3-,8-, and 9-substituted-9-deazaxanthines at the human A2B adenosine receptor” (J Med Chem, 2006)
# Assays:
# Adenosine receptor A2a [1] = biological target: T1, Adenosine receptor A2a (Homo sapiens, UniProt P29274)
# Description: Binding affinity to recombinant human adenosine A2A receptor
# [2] = biological target: T2, Adenosine receptor A2b (Homo sapiens) (UniProt P29275); experiment: Displacement of [3H]DPCPX from recombinant human adenosine A2B receptor expressed in HEK293 cells at 0.1 uM; type: cell-based
# T2 sequence (whole entry): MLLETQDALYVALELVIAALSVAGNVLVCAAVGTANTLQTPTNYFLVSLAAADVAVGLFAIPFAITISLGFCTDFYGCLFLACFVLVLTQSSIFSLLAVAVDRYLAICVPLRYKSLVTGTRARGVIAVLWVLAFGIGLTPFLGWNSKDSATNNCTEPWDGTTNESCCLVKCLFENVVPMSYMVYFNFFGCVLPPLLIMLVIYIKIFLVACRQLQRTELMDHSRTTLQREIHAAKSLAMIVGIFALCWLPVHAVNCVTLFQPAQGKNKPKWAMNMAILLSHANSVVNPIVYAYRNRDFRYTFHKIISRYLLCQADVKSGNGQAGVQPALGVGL
# Adenosine receptor A2b = biological target: T3, Adenosine receptor A2b (Homo sapiens, UniProt P29275)
# T3 sequence (P29275 whole entry): T2 sequence (whole entry)
# Description: Binding affinity to recombinant human adenosine A2B receptor
# Adenosine receptor A2a [3] = biological target: T1, Adenosine receptor A2a; experiment: Displacement of [3H]ZM-241385 from recombinant human adenosine A2A receptor expressed in HeLa cells at 0.1 uM
# [4] = biological target: T2, Adenosine receptor A2b (Homo sapiens); experiment: Displacement of [3H]DPCPX from recombinant human adenosine A2B receptor expressed in HEK293 cells at 0.01 uM
# T1 sequence (P29274 whole entry): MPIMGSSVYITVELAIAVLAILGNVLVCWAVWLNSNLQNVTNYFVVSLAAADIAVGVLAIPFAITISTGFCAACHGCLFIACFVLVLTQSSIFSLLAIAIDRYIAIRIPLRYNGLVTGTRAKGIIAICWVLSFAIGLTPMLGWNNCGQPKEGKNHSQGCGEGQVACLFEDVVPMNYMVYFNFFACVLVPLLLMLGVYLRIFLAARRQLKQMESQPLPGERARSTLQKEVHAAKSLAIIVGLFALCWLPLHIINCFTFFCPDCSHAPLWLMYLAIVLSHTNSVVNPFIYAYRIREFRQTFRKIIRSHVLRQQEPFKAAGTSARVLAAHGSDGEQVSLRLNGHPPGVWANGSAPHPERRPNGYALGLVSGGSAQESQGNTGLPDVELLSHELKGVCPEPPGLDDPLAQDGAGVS
SMILES,Ki (Adenosine receptor A2a [1]) [nM],inhibition [2] [%],Ki (Adenosine receptor A2b) [nM],inhibition (Adenosine receptor A2a [3]) [%],inhibition [4] [%]
CCCn1c(=O)c2[nH]c(-c3ccc(OCC(=O)Nc4ccc(CC(=O)O)cc4)cc3)cc2n(CCC)c1=O,224,87,33.9,28,14
CCCn1c(=O)c2[nH]c(-c3ccc(OCC(=O)Nc4ncccc4O)cc3)cc2n(CCC)c1=O,324,82,20.9,32,37
CCCn1c(=O)c2[nH]c(-c3ccc(OCC(=O)NCc4ccncc4)cc3)cc2n(CCC)c1=O,302,76,28.2,18,21
Cn1c(=O)c2[nH]c(-c3ccc(OCC(=O)Nc4ccc(CCN)cc4)cc3)cc2n(C)c1=O,166,34,186,38,7
CCCn1c(=O)c2[nH]c(-c3ccc(OC(CC)C(=O)Nc4ccc(F)cc4)cc3)cc2n(CCC)c1=O (stereo not given),19.1,100,4.79,88,68
COc1cc(-c2cc3c([nH]2)c(=O)n(C)c(=O)n3C)ccc1OCC(=O)Nc1ccc(C#N)cc1,575,28,214,5,10
CCCn1c(=O)c2[nH]c(-c3ccc(OCC(=O)Nc4ccc(C(=O)OCC)cc4)cc3)cc2n(C)c1=O,2630,88,11.7,9,12
CCn1c(=O)c2[nH]c(-c3ccc(OCC(=O)Nc4ccc(C#N)cc4)cc3)cc2n(CC)c1=O,120,79,13.5,2,20
COc1cc(-c2cc3c([nH]2)c(=O)n(C)c(=O)n3C)ccc1OCC(=O)NCc1ccc(Cl)cc1,158,43,186,23,5
CCCn1c(=O)c2[nH]c(-c3ccc(OC(C)C(=O)Nc4ccc(OC)cc4)cc3)cc2n(CCC)c1=O (stereo not given),38.9,92,5.13,57,55
Cn1c(=O)c2[nH]c(-c3ccc(OCC(=O)Nc4ccc([N+](=O)[O-])cc4)cc3)cc2n(C)c1=O,81.3,82,6.92,30,52
COc1cc(-c2cc3c([nH]2)c(=O)n(C)c(=O)n3C)ccc1OCC(=O)Nc1ccc(Br)cc1,81.3,78,38.9,32,15
Cn1c(=O)c2[nH]c(-c3cccc(OCC(=O)Nc4ccccc4)c3)cc2n(C)c1=O,204,35,166,32,10
COc1cc(OCC(=O)NCc2ccc(Cl)cc2)ccc1-c1cc2c([nH]1)c(=O)n(C)c(=O)n2C,186,46,123,23,11
CCCn1c(=O)c2[nH]c(-c3ccc(OCC(=O)Nc4ccc(C)cc4)cc3)c(Cl)c2n(CCC)c1=O,32.4,78,18.6,50,38
COc1cc(OCC(=O)Nc2ccccc2)ccc1-c1cc2c([nH]1)c(=O)n(C)c(=O)n2C,1050,55,69.2,13,12
COc1cc(OCC(=O)Nc2ccc(F)cc2)ccc1-c1cc2c([nH]1)c(=O)n(C)c(=O)n2C,95.5,63,25.1,31,23
CCCn1c(=O)c2[nH]c(-c3ccc(OCC(=O)Nc4ccccc4)cc3)c(Cl)c2n(CCC)c1=O,74.1,57,37.2,37,11
CCCn1c(=O)c2[nH]c(-c3ccc(OCC(=O)Nc4ccc(CC(=O)OCC)cc4)cc3)cc2n(CCC)c1=O,240,58,60.3,10,32
Cn1c(=O)c2[nH]c(-c3ccc(OCC(=O)NCc4ccccc4)cc3)cc2n(C)c1=O,182,66,51.3,25,12

# More lines, in order of falling Ki (Adenosine receptor A2a [1]), values ahead:
Ki (Adenosine receptor A2a [1]) [nM],inhibition [2] [%],Ki (Adenosine receptor A2b) [nM],inhibition (Adenosine receptor A2a [3]) [%],inhibition [4] [%],SMILES
708,52,91.2,8,4,CCCn1c(=O)c2[nH]c(-c3ccc(OCC(=O)Nc4ccc([N+](C)(C)C)cc4)cc3)cc2n(CCC)c1=O
263,44,83.2,23,5,CCCn1c(=O)c2[nH]c(-c3ccc(OCC(=O)Nc4ccccc4Cl)cc3)c(Cl)c2n(CCC)c1=O
245,63,27.5,13,20,CC(NC(=O)COc1ccc(-c2cc3c([nH]2)c(=O)n(C)c(=O)n3C)cc1)c1ccccc1 (stereo not given)
186,91,7.76,22,45,CCn1c(=O)c2[nH]c(-c3ccc(OCC(=O)Nc4ccccc4)cc3)cc2n(CC)c1=O
107,91,6.92,31,53,CCCn1c(=O)c2[nH]c(-c3ccc(OCC(=O)Nc4ccc(OC(F)(F)F)cc4)cc3)cc2n(CCC)c1=O
58.9,88,3.24,51,62,CCCn1c(=O)c2[nH]c(-c3ccc(OC(C)C(=O)Nc4ccc(F)cc4)cc3)cc2n(CCC)c1=O (stereo not given)
52.5,70,7.76,31,58,CCCn1c(=O)c2[nH]c(-c3ccc(OCC(=O)Nc4ccc(CS(=O)(=O)N5CCCC5)cc4)cc3)cc2n(CCC)c1=O
35.5,93,7.76,90,48,CCCn1c(=O)c2[nH]c(-c3ccc(N(C=O)CC(=O)Nc4ccc(Br)cc4)cc3)cc2n(CCC)c1=O
26.3,83,17,65,30,CCCn1c(=O)c2[nH]c(-c3ccc(OCC(=O)n4ccc(N)n4)cc3)cc2n(CCC)c1=O
20,80,12,52,22,CCCn1c(=O)c2[nH]c(-c3ccc(OCC(=O)Nc4ccc(OC)cc4)cc3)cc2n(CCC)c1=O
16.2,81,15.1,43,36,Cn1c(=O)c2[nH]c(-c3ccc(OCC(=O)Nc4nncs4)cc3)cc2n(C)c1=O
15.8,66,21.9,76,21,CCCn1c(=O)c2[nH]c(-c3ccc(OCC(=O)c4c(NC(=O)O)[nH]c(=O)n(C)c4=O)cc3)cc2n(CCC)c1=O
